Peptide text beside a SMILES is read from it.
Assays:
Assay type in all cases: cell-based
[1] = test system: Vibrio alginolyticus ATCC 33840
Protocol: MIC denotes the lowest concentration of an antimicrobial agent that can inhibit the growth of bacteria after overnight incubation.
Bacteria were grown in their respective media (Table 2 above) overnight at 37° C. or room temperature with constant shaking and then diluted to 10^6 CFU/ml in their respective medium. Stock solutions of peptides at 0.68 mM were prepared in distilled water. Bacteria and peptide were incubated (50 μl: 50 μl) to make the final peptide concentrations (0.68, 3.4, 6.8, 13.7, 34.1, 68.3, 136.5 μM) in a 96-microtitre plate and incubated for 24 h with constant shaking. […] Absorbance at 600 nm was detected every 3 h up to 24 h to obtain the growth curves. The minimal inhibition concentration (MIC) was defined as the lowest concentration of an antimicrobial agent that could inhibit the growth of bacteria after overnight incubation.

E. tarda = test: Quantitative proteomic analysis of AMP-treated bacteria; conditions: 6.8 μM, 1 hr
Protocol: Bacteria with or without AMP treatment for 1 hr at 6.8 μM were washed and lysed in 8 M of urea for 2 hrs. The lysate was then reduced in 10 mM of dithiothreitol (DTT) in 50 mM of ammonium bicarbonate (30 min at room temperature) and alkylated in 50 mM of […] (IAA) in 50 mM of ammonium bio-carbonate (20 min at room temperature). The samples were diluted 8 times with ammonium bicarbonate (50 mM, pH 8.0) so that the final concentration of urea was 1 M, followed by 2 μg of trypsin (Roche, Mannheim, Germany) for digestion. The mixtures were then incubated overnight at 37° C. and dried in a vacuum centrifuge (Eppendorf Concentrator plus). The peptides were dissolved in 20 μl of 0.1% trifluoroacetic acid (TFA), followed by ZipTip (Millipore, Billerica, Mass., USA) purification that was carried out in accordance with the manufacturer's instructions.
Mass spectrometry (MS) data were collected on an Orbitrap Fusion mass spectrometer coupled on-line with a nanoUPLC EASY-LC-1000 liquid chromatography system (ThermoFisher Scientific™, San Jose, Calif.). The peptides were eluted by using a microcapillary column with 50 cm×75 μm ID, PepMap C18, 2 μm particles (ThermoFisher Scientific™) with 2 to 80% acetonitrile in 0.1% formic acid at a flow rate of ˜350 nL/min for 120 min of gradient. They were ionized through electrospray ionization (positive mode 2.1 kV), and survey scans of peptide precursors from 350 to 1550 m/z were performed at a resolution of 120 K at 200 m/z. Tandem MS was performed by isolation at 1.2 Th with the quadrupole component, fragmentation with normalized collision energy of 35%, and rapid scan MS analysis in the ion trap. The MS2 ion count target was set to 10E4 and the maximum injection time was 250 ms. Only precursors with a charge state of 2-7 were fragmented for the MS2 analysis. The dynamic exclusion duration was set to 60 s with a 10 ppm of low and high mass tolerance around the selected precursor and its isotopes. The instrument was run in data dependent mode by using Orbitrap and an ion trap with […] cycles.
The raw data were analyzed by using Proteome Discoverer (Version 1.4.0.288. Thermo Fisher Scientific). The MS/MS spectra were searched with the Mascot search engine against the NCBI bacteria database 2014 (with 29,574 sequence entries). The peptides were generated from a Lys-C and tryptic digestion and the precursor mass tolerance was set as 25 ppm, and 0.6 Da for fragment mass tolerances. The oxidation of methionine and deamidation of N, Q were set as the dynamic modification, and the carbamidomethylation of cysteine-C as the static modification. The peptide spectral matches (PSMs) were validated by using a percolator based on q-values at a 1% false discovery rate (FDR). For protein identification, a high-confidence database search with a peptide target FDR (strict) of 0.1%, and target FDR (relaxed) 0.5% and ranked 1 peptides were used for peptide filtering. Identified peptides were grouped into individual protein clusters by scaffolding.
Peptide quantitation was carried out by using Progenesis LC-MS (version 4.1, Nonlinear) and as described in Babaei, F. et al. J. Proteome Res. Eversion, (2013). […] Following a statistical analysis, processing was carried out by using transformed “log-like” […] calculations of all the detected features. The total cumulative abundance was calculated by summing the abundance of all peptides that belonged to a respective protein. […]

E. coli = test system: E. coli

In the case of `CC[C@H](C)[C@H](N)C(=O)N[C@@H](CCCNC(=N)N)C(=O)N[C@H](C(=O)N[C@H](C(=O)N[C@@H](CC(C)C)C(=O)N[C@@H](CCCNC(=N)N)C(=O)N[C@@H](C)C(=O)N[C@@H](CCC(N)=O)C(=O)NCC(=O)N[C@@H](C)C(=O)N[C@@H](CC(C)C)C(=O)N[C@@H](CCCCN)C(=O)N[C@H](C(=O)O)[C@@H](C)CC)[C@@H](C)CC)[C@@H](C)CC` [Peptide A, IRIILRAQGALKI] (H-IRIILRAQGALKI-OH; N-terminus and C-terminus assumed), the MICs [1] is reported as 34.1 µM, the “expression of CPX two component pathway proteins DsbC, PpiA and FkpA” value (E. tarda) is reported as “down-regulated” and the “expression of DegQ, RpsO and YfiO (downstream proteins of the RpoE pathway)” value (E. tarda) is reported as “up-regulation”. For the same molecule, the “expression of Peptidyl-prolyl isomerase family members PpiA, PpiB, FkpA and SurA” value (E. tarda) was “highly suppressed”, the “expression of proteins involved in outer membrane assembly, peptidoglycan synthesis, and metal ion binding” value (E. tarda) was “induced” and the “proteins differentially expressed (at least one-fold difference) of 251 high confidence proteins” value (E. tarda) was 74. The “MIC for E. coli” value (E. coli) was 3.4 µM.

Source: patent US11065296B2, “Antimicrobial peptide, its analog and use” (City University of Hong Kong, priority 2018, dated 2021)
